pEC50: −log10 of the molar value.
Columns and labels:
[1] = Cell culture viability in the Huh7 HBV assay (HPRT1 DNA copy number); details: human
HBV [2] = assay: HBV assay in Huh7 cells transfected with pCI_HBVpg1820, intracapsid viral DNA by real-time PCR; type: cell-based, hepatitis B virus (HBV); details: for inhibition at 10 µM: Hepatitis B virus, Huh-7, 96 h
Description: In Huh7 cells: antiviral activity against HBV in cell culture was measured as previously described. Briefly, Huh7 cells were transfected with plasmid pCI_HBVpg1820 containing 1.1 unit of HBV genome under the control of a human cytomegalovirus (CMV) promoter. The drugs were stored at 1000× in DMSO at −20 °C. For each experiment, the drugs were diluted in DMEM cell culture medium (Thermo Fisher Scientific, Artenay, France) to a final concentration of 10 μM. All drugs were tested in triplicate in two independent experiments. After 4 days of culture, intracapsid viral DNA was quantified by duplex real-time PCR, using primers described elsewhere, on a LightCycler 480 II apparatus (Roche Diagnostics France, Meylan, France) using TaqMan Universal PCR Mastermix II without UNG (Thermo Fisher Scientific, Artenay, France). Cells were quantified using primers by real-time PCR, using primers HPRT1_F (5′-[…]) and HPRT1_R (5′-[…]), on a LightCycler 480 II apparatus (Roche) using a LightCycler® 480 SYBR Green I Master (Roche Diagnostics France, Meylan, France). Cycling reactions were performed with the following parameters: 5 min at 95 °C, followed by 45 cycles of 10 s at 95 °C, 15 s at 60 °C, 10 s at 72 °C. The inhibition of HBV replication (%) and cell culture viability (%) were quantified using the following formulas. Inhibition of HBV replication (%)=1− HBV DNA copy numberDrug/HBV DNA copy numberCell culture medium Cell viability (%)= HPRT1 DNA copy numberDrug/HPRT1 DNA copy numberCell culture medium

HBV [3] = assay: HBV assay in HepAD38 cells, real-time PCR for HBV DNA in supernatant; type: cell-based; details: Hepatitis B virus, 168 h, 7 days
Description: In HepAD38 cells were seeded at 50,000 cells/well in collagen-coated 96-well plates. Test compounds or 2′,3′-didéoxy-3′-thiacytidin (3TC) (control) were added to HepAD38 cells to a final concentration of 10 μM.
Real-Time PCR for HBV DNA. The experiment lasted 7 days. On day 7, total DNA was purified from the supernatant using a commercially available kit (DNeasy 96 Blood & Tissue kit, Qiagen). The HBV DNA was amplified in a real-time PCR assay using a LightCycler 480 (Roche) as described elsewhere. All samples were tested in duplicate in two to three independent experiments. Analysis: The concentration of compound that inhibited HBV DNA replication by 50% (EC50) was determined by linear regression.

[4] = test system: SARS-CoV-2 strain BavPat1; assay: SARS-CoV-2 assay in Vero E6 cells (CellTiter-Blue); details: 10 μM
HIV-1 LAI = assay: HIV assay in human PBM cells infected with HIV-1 LAI, RT quantification; type: cell-based; details: for inhibition at 10 µM: Human immunodeficiency virus 1, PBMC, PBM cells, HIV-1 LAI
Description: The assay was performed as described by Schinazi et al. with minor modifications. […] The supernatants were harvested, and the HIV-1 RT was quantified.

in vitro = type: cell-based; details: human; PBM cells; read-out: MTS Cytotoxicity (IC50, μM) PBM
Description: (§1) Assays were performed in human peripheral blood mononuclear (PBM) and human liver (HepG2) cells via MTS assay using the CellTiter 96® Non-Radioactive Cell Proliferation (Promega) kit as previously described^3. Cytotoxicity was expressed as the concentration of test compounds that inhibited cell proliferation by 50% (IC50) and calculated using the Chou and Talalay method.

[5] = Cytotoxicity MTS assay in HepG2 cells; type: cell-based; details: human
Description: as §1

[6] = 10 μM, Huh7 cells, 4 days, read-out: HBV % Inhibition Huh7

| Structure (SMILES) | viability at 4 days, 10 µM [1] [%] | inhibition at 10 µM (HBV [2]; [6]) [%] | inhibition at 10 µM (HBV [3]) [%] | SARS-CoV-2 % Inhibition Vero E6 [4] [%] | inhibition at 10 µM (HIV-1 LAI) [%] | IC50 (in vitro) [µM] | IC50 [5] [µM] | HBV % Inhibition Huh7 (HBV [2]; 10 μM, Huh7 cells, 4 days) [%] | inhibition at 10 µM (HBV [2]; read-out: HBV % Inhibition Huh7, 10 μM, Huh7 cells, 4 days) [%] | pEC50 (HIV-1 LAI; positive control, data not shown, read-out: EC50 anti-HIV) |
| --- | --- | --- | --- | --- | --- | --- | --- | --- | --- | --- |
| CCOC(=O)c1cn(C/C(C)=C/CP(=O)(OCOC(=O)OC(C)C)OCOC(=O)OC(C)C)nn1 [Compound 11o, Ethyl-1-[(E)-4-[bis(isopropoxycarbonyloxymethoxy)phosphoryl]-2-methyl-but-2-enyl]triazole-4-carboxylate] | 60 | < 1 | 41.2 | <1 | 22.4 | 67.5 | > 100 | – | – | – |
| CCCCCCCC(=O)NCc1cn(C/C(C)=C/CP(=O)(OCOC(=O)OC(C)C)OCOC(=O)OC(C)C)nn1 [Compound 11k, [[(E)-4-(4-Octanoylaminomethyltriazol-1-yl)-3-methyl-but-2-enyl]-(isopropoxycarbonyloxymethoxy)phosphoryl]oxymethyl isopropyl carbonate] | 100 | < 1 | 6.1 | 5 | 42 | 51.5 | 57.3 | – | – | – |
| CCCCCc1ccc(-c2cn(C/C(C)=C/CP(=O)(OCOC(=O)OC(C)C)OCOC(=O)OC(C)C)nn2)cc1 [Compound 11c, [[(E)-4-[4-(4-Pentylphenyl)triazol-1-yl]-3-methyl-but-2-enyl]-(isopropoxycarbonyloxymethoxy)phosphoryl]oxymethyl isopropyl carbonate] | 89 | – | < 1 | <1 | 44.4 | 47.8 | 51.8 | 42 | > 40 | – |
| CNC(=O)c1cn(C/C(C)=C/CP(=O)(OCOC(=O)OC(C)C)OCOC(=O)OC(C)C)nn1 [Compound 11p, [[(E)-4-(4-Methylcarbamoyltriazol-1-yl)-3-methyl-but-2-enyl]-(isopropoxycarbonyloxymethoxy)phosphoryl]oxymethyl isopropyl carbonate] | 54 | 14 | < 1 | <1 | 36.4 | 78.3 | > 100 | – | – | – |
| C/C(=C\CP(=O)(OCOC(=O)OC(C)C)OCOC(=O)OC(C)C)Cn1cc(C(C)(C)C)nn1 [Compound 11g, [[(E)-4-(4-tert-Butyltriazol-1-yl)-3-methyl-but-2-enyl]-(isopropoxycarbonyloxymethoxy)phosphoryl]oxymethyl isopropyl carbonate] | 79 | 10 | 17.3 | <1 | 12.3 | 28.3 | > 100 | – | – | – |
| CCCCCCCCCCCCCCCCOCCCOP(=O)(C/C=C(\C)Cn1cc(-c2ccc(CCCCCCC)cc2)nn1)OCOC(=O)OC(C)C (centres unmarked) [Compound 15e, [3-Hexadecyloxypropoxy-[(E)-3-methyl-4-[4-(heptylphenyl)triazol-1-yl]but-2-enyl]phosphoryl]oxymethyl isopropyl carbonate] | 100 | 8 | – | <1 | – | – | – | – | – | – |
| CCCCCCc1ccc(-c2cn(C/C(C)=C/CP(=O)(OCOC(=O)OC(C)C)OCOC(=O)OC(C)C)nn2)cc1 [Compound 11d, [[(E)-4-[4-(4-Hexylphenyl)triazol-1-yl]-3-methyl-but-2-enyl]-(isopropoxycarbonyloxymethoxy)phosphoryl]oxymethyl isopropyl carbonate] | 100 | 39 | 38.8 | <1 | 41.8 | 23.7 | 59.6 | – | – | – |
| CCC(CC)COC(=O)[C@H](C)N[P@](=O)(OC[C@H]1O[C@@](C#N)(c2ccc3c(N)ncnn23)[C@H](O)[C@@H]1O)Oc1ccccc1 [Remdesivir, reference compound] | – | – | – | 100 | – | – | – | – | – | – |
| CCNC(=O)c1cn(C/C(C)=C/CP(=O)(OCOC(=O)OC(C)C)OCOC(=O)OC(C)C)nn1 [Compound 11q, [[(E)-4-[4-(Ethylcarbamoyl)triazol-1-yl]-3-methyl-but-2-enyl]-(isopropoxycarbonyloxymethoxy)phosphoryl]oxymethyl isopropyl carbonate] | 90 | < 1 | < 1 | <1 | 31.2 | 80.6 | > 100 | – | – | – |
| CCCCCCCCCCCCCCCCOCCCOP(=O)(C/C=C(\C)Cn1cc(-c2ccc(CCCCC)cc2)nn1)OCOC(=O)OC(C)C (centres unmarked) [Compound 15c, [3-Hexadecyloxypropoxy-[(E)-3-methyl-4-[4-(4-pentylphenyl)triazol-1-yl]but-2-enyl]phosphoryl]oxymethyl isopropyl carbonate] | 47 | 14 | 28.8 | <1 | 28.2 | 50.5 | > 100 | – | – | – |
| CCCCCCCCCCCCCCCCOCCCOP(=O)(C/C=C(\C)Cn1cc(C(N)=O)nn1)OCOC(=O)OC(C)C (centres unmarked) [Compound 15j, [[(E)-4-(4-Carbamoyltriazol-1-yl)-3-methyl-but-2-enyl]-(3-hexadecyloxypropoxy)phosphoryl]oxymethyl isopropyl carbonate] | 74 | 62 | < 1 | <1 | 32.2 | 43.1 | 66.4 | – | – | – |
| C[C@@H]1C[C@@H]([C@H](O)CC2CC(=O)NC(=O)C2)C(=O)[C@@H](C)C1 [cycloheximide, reference compound] | – | – | – | – | – | 1 | 1.5 | – | – | – |
| CCCCCCCCCCCCCCCCOCCCOP(=O)(C/C=C(\C)Cn1cc(-c2ccc([N+](=O)[O-])cc2)nn1)OCOC(=O)OC(C)C (centres unmarked) [Compound 15l, [3-Hexadecyloxypropoxy-[(E)-3-methyl-4-[4-(nitrophenyl)triazol-1-yl]but-2-enyl]phosphoryl]oxymethyl isopropyl carbonate] | 100 | 12 | – | <1 | – | – | – | – | – | – |
| CCCCCCCCCCCCCCCCOCCCOP(=O)(C/C=C(\C)Cn1cc(-c2ccc(CCC)cc2)nn1)OCOC(=O)OC(C)C (centres unmarked) [Compound 15a, [3-Hexadecyloxypropoxy-[(E)-3-methyl-4-[4-(4-propylphenyl]triazol-1-yl]but-2-enyl]phosphoryl]oxymethyl isopropyl carbonate] | 95 | < 1 | – | <1 | – | – | – | – | – | – |
| C/C(=C\CP(=O)(OCOC(=O)OC(C)C)OCOC(=O)OC(C)C)Cn1cc(C(=O)O)nn1 [Compound 11m, 1-[(E)-4-[Bis(isopropoxycarbonyloxymethoxy)phosphoryl]-2-methyl-but-2-enyl]triazole-4-carboxylic acid] | 57 | 12 | 41.3 | <1 | 12.9 | – | > 100 | – | – | – |
| Cc1cn([C@H]2C[C@H](N=[N+]=[N-])[C@@H](CO)O2)c(=O)[nH]c1=O [AZT, reference compound] | – | – | – | – | – | – | – | – | – | 8.10 |

Source: article PMC7967160, “Synthesis and Antiviral Evaluation of (1,4-Disubstituted-1,2,3-Triazol)-(E)-2-Methyl-but-2-Enyl Nucleoside Phosphonate Prodrugs” (Molecules, 2021)
